Reference: ChEMBL document CHEMBL5634144, “Design, synthesis and biological evaluation of novel DCLK1 inhibitor containing purine skeleton for the treatment of pancreatic cancer” (Eur J Med Chem, 2023)
The source made the active and inactive calls. The rule behind the calls is not given here.

Tests used:
[1] = target: T1, Serine/threonine-protein kinase DCLK1 (Homo sapiens, UniProt O15075); experiment: Inhibition of DCLK1 (unknown origin) in presence of 33P-ATP
T1 sequence (O15075 whole entry): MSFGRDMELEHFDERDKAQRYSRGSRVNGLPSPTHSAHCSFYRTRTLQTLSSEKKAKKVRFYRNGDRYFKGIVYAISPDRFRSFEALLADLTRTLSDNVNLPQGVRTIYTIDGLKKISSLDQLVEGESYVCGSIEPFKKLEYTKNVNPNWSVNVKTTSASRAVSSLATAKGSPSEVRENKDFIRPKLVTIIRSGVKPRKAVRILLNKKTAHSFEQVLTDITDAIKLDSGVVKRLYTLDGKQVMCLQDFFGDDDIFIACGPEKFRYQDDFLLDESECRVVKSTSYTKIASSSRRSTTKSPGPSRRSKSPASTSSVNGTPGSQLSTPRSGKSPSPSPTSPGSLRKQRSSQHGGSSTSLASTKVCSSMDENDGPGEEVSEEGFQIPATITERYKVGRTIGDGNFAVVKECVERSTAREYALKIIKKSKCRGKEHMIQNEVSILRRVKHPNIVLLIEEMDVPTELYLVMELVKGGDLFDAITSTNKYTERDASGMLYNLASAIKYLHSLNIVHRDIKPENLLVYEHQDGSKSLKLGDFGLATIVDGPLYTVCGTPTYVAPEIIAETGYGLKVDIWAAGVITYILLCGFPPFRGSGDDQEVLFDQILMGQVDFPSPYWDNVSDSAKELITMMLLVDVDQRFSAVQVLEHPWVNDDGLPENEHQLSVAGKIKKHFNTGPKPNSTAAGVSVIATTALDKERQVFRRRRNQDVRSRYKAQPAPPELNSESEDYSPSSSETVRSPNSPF

[2] = target: T1, Serine/threonine-protein kinase DCLK1; experiment: Inhibition of DCLK1 (unknown origin) preincubated for 10 mins followed by substrate/ATP addition measured after 60 mins by mobility shift assay
SW1990 [3] = experiment: Antiproliferative activity against human SW1990 cells assessed as inhibition cell proliferation incubated for 6 days by MTT assay; assay type: functional, cell-based; settings: SW1990, 144 h
HCT-116 = experiment: Antiproliferative activity against human HCT-116 cells assessed as inhibition cell proliferation incubated for 6 days by MTT assay; assay type: functional, cell-based; settings: HCT-116, 144 h
CAKI-1 = experiment: Antiproliferative activity against human CAKI-1 cells assessed as inhibition cell proliferation incubated for 6 days by MTT assay; assay type: functional, cell-based; settings: CAKI-1, 144 h
SW1990 [4] = experiment: Induction of apoptosis in human SW1990 cells assessed as viable cells at 10 uM incubated for 6 days by Annexin V/PI staining based flow cytometry (reference value: 92.93 %); assay type: functional; settings: SW1990, 144 h, time 6 day, read-out: Activity
SW1990 [5] = experiment: Induction of apoptosis in human SW1990 cells assessed as early apoptotic cells at 10 uM incubated for 6 days by Annexin V/PI staining based flow cytometry (reference value: 4.55 %); assay type: functional; settings: time 6 day
SW1990 [6] = experiment: Induction of apoptosis in human SW1990 cells assessed as late apoptotic cells at 10 uM incubated for 6 days by Annexin V/PI staining based flow cytometry (reference value: 2.01 %); assay type: functional; settings: time 6 day
SW1990 [7] = experiment: Induction of apoptosis in human SW1990 cells assessed as necrotic cells at 10 uM incubated for 6 days by Annexin V/PI staining based flow cytometry (reference value: 0.50 %); assay type: functional; settings: time 6 day
SW1990 [8] = experiment: Induction of cell cycle arrest at G0/G1 phase in human SW1990 cells at 10 uM incubated for 6 days by PI staining based flow cytometry (reference value: 49.65 %); assay type: functional; settings: time 6 day
SW1990 [9] = experiment: Induction of cell cycle arrest at S phase in human SW1990 cells at 10 uM incubated for 6 days by PI staining based flow cytometry (reference value: 21.20 %); assay type: functional; settings: time 6 day
SW1990 [10] = experiment: Induction of cell cycle arrest at G2/M phase in human SW1990 cells at 10 uM incubated for 6 days by PI staining based flow cytometry (reference value: 29.15 %); assay type: functional; settings: time 6 day
SW1990 [11] = experiment: Inhibition of cell invasion in human SW1990 cells at 10 uM by transwell assay; assay type: functional, cell-based
SW1990 [12] = experiment: Inhibition of cell migration in human SW1990 cells at 10 uM by transwell assay; assay type: functional, cell-based
SW1990 [13] = experiment: Antitumor activity against human SW1990 cells xenografted in BALB/c nude mouse model assessed as tumor growth inhibition at 60 mg/kg, ip for 21 days consecutively relative to control; assay type: functional; settings: SW1990, 504 h, time 21 day, read-out: TGI

IC50 [1]: 0.0572 µM | IC50 [2]: 0.0379 µM | IC50 (SW1990 [3]): 14 µM | IC50 (HCT-116): 6.2 µM
Compound: COc1cc(N2CCN(C)CC2)ccc1Nc1ncc2c(n1)N(C)c1ccccc1C(=O)N2CC(F)(F)F
IC50 (CAKI-1): 12.2 µM | viability at 10 µM (SW1990 [4]): 60.6% | Activity (SW1990 [5]): 18.23% | Activity (SW1990 [6]): 12.13% | Activity (SW1990 [7]): 8.99% | Activity (SW1990 [8]): 61.36% | Activity (SW1990 [9]): 16.89% | Activity (SW1990 [10]): 21.75% | inhibition (SW1990 [11]): Active | inhibition (SW1990 [12]): Active | inhibition in vivo at 60 mg/kg (SW1990 [13]): 24.8%
